Patent publication US20260225997A1, “IONIZABLE AMINE LIPIDS” (Intellia Therapeutics, Inc., priority 2018, published 2026)
Where two headings read alike, the source gives them in different places.

How the values were obtained:
[1] = RNA encapsulation efficiency of LNP (Ribogreen fluorescence assay); type: physicochemical
Method in brief: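 LNP samples diluted in 1× TE buffer with 0.2% Triton X-100 (total RNA) or without it (free RNA), stained with RiboGreen for ~10 min at room temperature in the dark, read at ex 488/em 525 nm against RNA standard curves. Encapsulation efficiency = (Total RNA − Free RNA)/Total RNA.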

B2M = B2M editing in mouse liver by NGS after i.v. LNP delivery of Cas9 mRNA and sgRNA; type: in vivo; conditions: for Editing (%) B2M liver: 6 days post-dose; for Editing (%) B2M liver / % Editing B2M in mouse liver: G650 1:1; for % Editing B2M in mouse liver: 7 days post-dose
Procedure: Preparations of various LNP compositions were prepared with amine lipids. In assays for percent liver editing in mice, Cas9 mRNA and chemically modified sgRNA were formulated in LNPs, at either a 1:1 w/w ratio or a 1:2 w/w ratio. LNPs are formulated with a composition of a given ionizable lipid (e.g. an amine lipid), DSPC, cholesterol, and PEG-2k-DMG, with a 6.0 N:P ratio.
LNPs were administered to mice by a single dose at 0.1 mg/kg, unless otherwise noted and genomic DNA was isolated for NGS analysis as described below.
CD-1 female mice, ranging from 6-10 weeks of age were used in each study. Animals were weighed and grouped according to body weight for preparing dosing solutions based on group average weight. LNPs were dosed via the lateral tail vein in a volume of 0.2 mL per animal (approximately 10 mL per kilogram body weight). The animals were periodically observed post dose for adverse effects for at least 24 hours post dose. Animals were euthanized at 6 or 7 days by exsanguination via cardiac puncture under isoflurane anesthesia. Blood was collected into serum separator tubes or into tubes containing buffered sodium citrate for plasma as described herein. For studies involving in vivo editing, liver tissue was collected from each animal for DNA extraction and analysis.
Cohorts of mice were measured for liver editing by Next-Generation Sequencing (NGS).
In brief, to quantitatively determine the efficiency of editing at the target location in the genome, genomic DNA was isolated and deep sequencing was utilized to identify the presence of insertions and deletions introduced by gene editing.
PCR primers were designed around the target site (e.g., B2M), and the genomic area of interest was amplified. Additional PCR was performed according to the manufacturer's protocols (Illumina) to add the necessary chemistry for sequencing. The amplicons were sequenced on an Illumina MiSeq instrument. The reads were aligned to the […] after eliminating those having low quality scores. The resulting files containing the reads were mapped to the reference genome (BAM files), where reads that overlapped the target region of interest were selected and the number of wild type reads versus the number of reads which contain an insertion, substitution, or deletion was calculated.
The editing percentage (e.g., the “editing efficiency” or “percent editing”) is defined as the total number of sequence reads with insertions or deletions over the total number of sequence reads, including wild type.
CD-1 female mice were dosed i.v. at 0.1 mpk or 0.3 mpk. […] For animals dosed with G282 targeting TTR, blood and the liver were collected and serum TTR and editing were measured. For animals dosed with G650 targeting B2M, liver was collected and editing was measured.

TTR = experiment: Transthyretin (TTR) ELISA analysis of mouse serum after LNP dosing; type: in vivo; conditions: for response vs control in vivo at 0.1 mg/kg / response vs control in vivo at 0.03 mg/kg: read-out: Serum TTR % TSS
Method in brief: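 Female CD-1 mice aged 6-10 weeks were grouped by body weight and given LNPs by lateral tail vein injection (0.2 mL per animal, about 10 mL per kilogram). Mice were bled by cardiac puncture under isoflurane into serum separator tubes. Serum was diluted 10,000-fold for the 0.1 mpk dose, and total TTR was quantified with a Mouse Prealbumin (Transthyretin) ELISA Kit following the kit directions.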

[2] = Table 12, Example 56: LNP, G282 (TTR), ratio 6.0
[3] = Table 14, Example 58: LNP, G282 (TTR) 1:1 w/w, N:P 6.0
[4] = Table 16, Example 59: LNP, G282 (TTR) 1:1 w/w, N:P 6.0
[5] = Table 20, Example 61: LNP, G282 (TTR) 1:1 w/w, N:P 6.0
[6] = Table 22, Example 62: LNP, G282 (TTR), sgRNA:Cas9 mRNA 1:2 w/w, N:P 6.0
[7] = Table 24, Example 63: LNP, G282 (TTR) 1:1 w/w, NP 6.0
[8] = Example 55: 0.1 mpk i.v., 7 days post-dose, G282 1:1
[9] = Example 56: 0.1 mpk i.v., 7 days post-dose, G282
[10] = Example 59: 0.1 mpk i.v., 7 days post-dose, G282 1:1
[11] = Example 61: 0.1 mpk i.v., 7 days post-dose, G282 1:1
[12] = Example 62: 0.03 mpk i.v., 7 days post-dose, G282 1:2
[13] = Example 62: 0.1 mpk i.v., 7 days post-dose, G282 1:2
[14] = Example 63: 0.03 mpk i.v., 7 days post-dose, G282 1:1
[15] = Example 63: 0.1 mpk i.v., 7 days post-dose, G282 1:1
[16] = Mus musculus, iv, 144 h, Example 58: 0.1 mpk i.v., 6 days post-dose, G282 1:1
[17] = Mus musculus, iv, 168 h, Example 59: 0.1 mpk i.v., 7 days post-dose, G282 1:1
[18] = Mus musculus, iv, 168 h, Example 61: 0.1 mpk i.v., 7 days post-dose, G282 1:1
[19] = Mus musculus, iv, 168 h, Example 62: 0.03 mpk i.v., 7 days post-dose, G282 1:2
[20] = Mus musculus, iv, 168 h, Example 62: 0.1 mpk i.v., 7 days post-dose, G282 1:2
[21] = Mus musculus, iv, 168 h, Example 63: 0.03 mpk i.v., 7 days post-dose, G282 1:1
[22] = Mus musculus, iv, 168 h, Example 63: 0.1 mpk i.v., 7 days post-dose, G282 1:1

CCCCC/C=C\C/C=C\CCCCCCCC(=O)OCC(COC(=O)CCC(OCCCCCCCC)OCCCCCCCC)COC(=O)OCCCN(CC)CC (stereo not shown) [Compound 19, 3-((4,4-bis(octyloxy)butanoyl)oxy)-2-(((((3-(diethylamino)propoxy))-carbonyl)oxy)methyl)propyl (9Z,12Z)-octadeca-9,12-dienoate, reference compound]
Encapsulation (%) ([1]; Table 3, Example 52: LNP, Cas9 mRNA + sgRNA (G650) 1:1 w/w, N:P 6.0, Compound 19 50/9/38/3, others 50/10/38.5/1.5): 98%
Encapsulation (%) ([1]; Table 5, Example 53: LNP with gRNA G282 (TTR), 1:1 w/w, N:P 6.0): 99%
Encapsulation (%) ([1]; Table 5, Example 53: LNP with gRNA G650 (B2M), 1:1 w/w, N:P 6.0): 98%
Encapsulation (%) ([1]; Table 8, Example 54: LNP, G650 (B2M) 1:1 w/w, N:P 6.0): 98%
Encapsulation (%) ([1]; Table 10, Example 55: LNP, G282 (TTR) 1:1 w/w, N:P 6.0): 98%
Encapsulation (%) [1, 2]: 97%
Encapsulation (%) [1, 3]: 99%
Encapsulation (%) [1, 4]: 98%
Encapsulation (%) ([1]; Table 18, Example 60: LNP, G502 (TTR), sgRNA:Cas9 mRNA 1:2 w/w, N:P 6.0): 99%
Encapsulation (%) [1, 5]: 98%
Encapsulation (%) [1, 6]: 99%
Encapsulation (%) [1, 7]: 98%
Encapsulation (%) ([1]; Table 26, Example 64: LNP, G282 (TTR) 1:1 w/w, N:P 6.0): 98%
Editing (%) of B2M in mouse liver (B2M; Example 52: LNP single dose 0.1 mg/kg i.v., CD-1 female mice, sgRNA G650:Cas9 mRNA 1:1, NGS): 12.0%
Editing (%) B2M liver (B2M; Example 53: 0.1 mpk i.v., CD-1 female mice): 25.5%
Editing (%) B2M liver (B2M; Example 53: 0.3 mpk i.v., CD-1 female mice): 43.4%
dose response of B2M editing in liver (B2M; Example 53 text: 0.1 mpk vs 0.3 mpk): increased editing of B2M in liver significantly between the 0.1 mpk and 0.3 mpk doses
% Editing B2M in mouse liver (B2M; Example 54: 0.1 mpk i.v., CD-1 female mice): 13%
% Editing B2M in mouse liver (B2M; Example 54: 0.3 mpk i.v., CD-1 female mice): 44%
dose response of B2M editing in liver (B2M; Example 54 text: 0.1 mpk vs 0.3 mpk, 7 days): increased editing at the 0.3 mpk dose compared to the 0.1 mpk dose
TSS (serum TTR % TSS) (TTR; Example 53: 0.1 mpk i.v., 6 days post-dose, G282 1:1): 85 % TSS
Serum TTR (TTR; Example 53: 0.1 mpk i.v., CD-1 female mice, 6 days post-dose, G282 1:1): 55 µg/mL
TSS (serum TTR % TSS) (TTR; Example 53: 0.3 mpk i.v., 6 days post-dose, G282 1:1): 3 % TSS
Serum TTR (TTR; Example 53: 0.3 mpk i.v., CD-1 female mice, 6 days post-dose, G282 1:1): 55 µg/mL
Serum TTR (TTR; [8]): 528 µg/mL
Serum TTR (% TSS) (TTR; [8]): 46 % TSS
Serum TTR (TTR; [9]): 865 µg/mL
Serum TTR (% TSS) (TTR; [9]): 108 % TSS
Serum TTR (TTR; [10]): 438 µg/mL
Serum TTR (TTR; Example 60: 0.1 mpk i.v., 6 days post-dose, G502 1:2): 517 µg/mL
Serum TTR (TTR; [11]): 438 µg/mL
Serum TTR (TTR; [12]): 560 µg/mL
Serum TTR (TTR; [13]): 414 µg/mL
Serum TTR (TTR; [14]): 593.01 µg/mL
Serum TTR (TTR; [15]): 134.54 µg/mL
Serum TTR (TTR; Example 64: Dose 0.03 mpk (table) i.v., 7 days post-dose, G282 1:1): 622.0 µg/mL
response vs control in vivo at 0.1 mg/kg (TTR; [16]): 59%
response vs control in vivo at 0.1 mg/kg (TTR; Mus musculus, iv, 144 h, Example 60: 0.1 mpk i.v., 6 days post-dose, G502 1:2): 36%
response vs control in vivo at 0.1 mg/kg (TTR; [17]): 47%
response vs control in vivo at 0.1 mg/kg (TTR; [18]): 34%
response vs control in vivo at 0.03 mg/kg (TTR; [19]): 88%
response vs control in vivo at 0.1 mg/kg (TTR; [20]): 65%
response vs control in vivo at 0.03 mg/kg (TTR; [21]): 73.5%
response vs control in vivo at 0.1 mg/kg (TTR; [22]): 16.7%
inhibition in vivo at 0.03 mg/kg (TTR; Mus musculus, iv, 168 h, Example 64: Dose 0.03 mpk (table) i.v., 7 days post-dose, G282 1:1, read-out: Serum TTR (% KD)): -8.6%

CCCCCCCCCOC(=O)CCCCCCCN(CCO)CCCCCCCC(=O)OC(CCCCCCCC)CCCCCCCC [Compound 18, heptadecan-9-yl 8-((2-hydroxyethyl)(8-(nonyloxy)-8-oxooctyl)amino)octanoate, reference compound]
Encapsulation (%) [1, 2]: 81%
Encapsulation (%) [1, 4]: 98%
Encapsulation (%) [1, 5]: 90%
Serum TTR (TTR; [9]): 415 µg/mL
Serum TTR (% TSS) (TTR; [9]): 52 % TSS
Serum TTR (TTR; [10]): 324 µg/mL
Serum TTR (TTR; [11]): 615 µg/mL
response vs control in vivo at 0.1 mg/kg (TTR; [17]): 35%
response vs control in vivo at 0.1 mg/kg (TTR; [18]): 48%

CCCCCCCCOC(CCCCCCCN(CCO)CCCCCCCC(=O)OC(CC)CCCCCC)OCCCCCCCC (stereo not shown) [Compound 28, nonan-3-yl 8-((8,8-bis(octyloxy)octyl)(2-hydroxyethyl)amino)octanoate]
Encapsulation (%) [1, 7]: 97%
Serum TTR (TTR; [14]): 493.60 µg/mL
Serum TTR (TTR; [15]): 321.26 µg/mL
response vs control in vivo at 0.03 mg/kg (TTR; [21]): 61.2%
response vs control in vivo at 0.1 mg/kg (TTR; [22]): 39.8%

CCCCCCCCOC(CCCCCCCN(CCO)CCCCCCCC(=O)OC(CC)CCCCCCCC)OCCCCCCCC (stereo not shown) [Compound 17, undecan-3-yl 8-((8,8-bis(octyloxy)octyl)(2-hydroxyethyl)amino)octanoate]
Encapsulation (%) [1, 3]: 91%
Encapsulation (%) [1, 6]: 94%
Serum TTR (TTR; Example 58: 0.1 mpk i.v., 6 days post-dose, G282 1:1): 479 µg/mL
Serum TTR (TTR; [12]): 495 µg/mL
Serum TTR (TTR; [13]): 304 µg/mL
response vs control in vivo at 0.1 mg/kg (TTR; [16]): 48%
response vs control in vivo at 0.03 mg/kg (TTR; [19]): 78%
response vs control in vivo at 0.1 mg/kg (TTR; [20]): 48%
